Assay results reported in the supplement of paper PMC10307832.

Legend:
Assay in all cases: relative viability (nuclei count vs DMSO), 5 days (fraction); higher = more cells survive
Sorafenib = compound: CNC(=O)c1cc(Oc2ccc(NC(=O)Nc3ccc(Cl)c(C(F)(F)F)c3)cc2)ccn1 [Sorafenib]
Outline: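 Hoechst staining, done together with fixation and permeabilisation, marked nuclei for 4× imaging and MetaXpress counting. This followed 5 days without medium change after lung cancer cell lines, kept overnight at 37 °C in 1536-well plates, were pinned with five library-drug doses (not always all listed) spaced by √10 on vehicle-anchored plates. Viability is the ratio of treated-well to vehicle-well nuclei, expressed as a median across plates. Plates passed only at control CV below 25% with at least one doubling.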

Sorafenib + Trametinib = compound: CNC(=O)c1cc(Oc2ccc(NC(=O)Nc3ccc(Cl)c(C(F)(F)F)c3)cc2)ccn1 [Sorafenib] + CC(=O)Nc1cccc(-n2c(=O)n(C3CC3)c(=O)c3c(Nc4ccc(I)cc4F)n(C)c(=O)c(C)c32)c1 [Trametinib] (partner 0.02 µM)
Outline: (§1)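 Five library-drug doses in √10 steps were combined with a fixed anchor-drug dose, or a single drug was given alone, by pin tool to lung cancer cell lines in 1536-well plates the day after seeding. Nuclei were stained and counted after 5 days. Relative viability is the nuclei count in treated wells over that in vehicle wells, taken as the median of duplicate plates.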

Sorafenib + Palbociclib = compound: CNC(=O)c1cc(Oc2ccc(NC(=O)Nc3ccc(Cl)c(C(F)(F)F)c3)cc2)ccn1 [Sorafenib] + CC(=O)c1c(C)c2cnc(Nc3ccc(N4CCNCC4)cn3)nc2n(C2CCCC2)c1=O [Palbociclib] (partner 0.5 µM)
Outline: as §1

Sorafenib + OSI-027 = compound: CNC(=O)c1cc(Oc2ccc(NC(=O)Nc3ccc(Cl)c(C(F)(F)F)c3)cc2)ccn1 [Sorafenib] + COc1cccc2cc(-c3nc([C@H]4CC[C@H](C(=O)O)CC4)n4ncnc(N)c34)[nH]c12 [OSI-027] (partner 0.5 µM)
Outline: as §1

Sorafenib + Tozasertib = compound: CNC(=O)c1cc(Oc2ccc(NC(=O)Nc3ccc(Cl)c(C(F)(F)F)c3)cc2)ccn1 [Sorafenib] + Cc1cc(Nc2cc(N3CCN(C)CC3)nc(Sc3ccc(NC(=O)C4CC4)cc3)n2)n[nH]1 [Tozasertib] (partner 0.1 µM)
Outline: as §1

Sorafenib + AZD7762 = compound: CNC(=O)c1cc(Oc2ccc(NC(=O)Nc3ccc(Cl)c(C(F)(F)F)c3)cc2)ccn1 [Sorafenib] + NC(=O)Nc1cc(-c2cccc(F)c2)sc1C(=O)N[C@H]1CCCNC1 [AZD7762] (partner 0.2 µM)
Outline: as §1

Sorafenib + Pemetrexed = compound: CNC(=O)c1cc(Oc2ccc(NC(=O)Nc3ccc(Cl)c(C(F)(F)F)c3)cc2)ccn1 [Sorafenib] + Nc1nc2[nH]cc(CCc3ccc(C(=O)N[C@@H](CCC(=O)O)C(=O)O)cc3)c2c(=O)[nH]1 [Pemetrexed] (partner 0.2 µM)
Outline: as §1

Sorafenib + Decitabine = compound: CNC(=O)c1cc(Oc2ccc(NC(=O)Nc3ccc(Cl)c(C(F)(F)F)c3)cc2)ccn1 [Sorafenib] + Nc1ncn([C@H]2C[C@H](O)[C@@H](CO)O2)c(=O)n1 [Decitabine] (partner 2 µM)
Outline: as §1

Sorafenib + Vorinostat = compound: CNC(=O)c1cc(Oc2ccc(NC(=O)Nc3ccc(Cl)c(C(F)(F)F)c3)cc2)ccn1 [Sorafenib] + O=C(CCCCCCC(=O)Nc1ccccc1)NO [Vorinostat] (partner 1 µM)
Outline: as §1

Sorafenib + Olaparib = compound: CNC(=O)c1cc(Oc2ccc(NC(=O)Nc3ccc(Cl)c(C(F)(F)F)c3)cc2)ccn1 [Sorafenib] + O=C(c1cc(Cc2n[nH]c(=O)c3ccccc23)ccc1F)N1CCN(C(=O)C2CC2)CC1 [Olaparib] (partner 8 µM)
Outline: as §1

Sorafenib + Bortezomib = compound: CNC(=O)c1cc(Oc2ccc(NC(=O)Nc3ccc(Cl)c(C(F)(F)F)c3)cc2)ccn1 [Sorafenib] + CC(C)C[C@H](NC(=O)[C@H](Cc1ccccc1)NC(=O)c1cnccn1)B(O)O [Bortezomib] (partner 0.002 µM)
Outline: as §1

Sorafenib + Navitoclax = compound: CNC(=O)c1cc(Oc2ccc(NC(=O)Nc3ccc(Cl)c(C(F)(F)F)c3)cc2)ccn1 [Sorafenib] + CC1(C)CCC(c2ccc(Cl)cc2)=C(CN2CCN(c3ccc(C(=O)NS(=O)(=O)c4ccc(N[C@H](CCN5CCOCC5)CSc5ccccc5)c(S(=O)(=O)C(F)(F)F)c4)cc3)CC2)C1 [Navitoclax] (partner 0.5 µM)
Outline: as §1

Sorafenib + Foretinib = compound: CNC(=O)c1cc(Oc2ccc(NC(=O)Nc3ccc(Cl)c(C(F)(F)F)c3)cc2)ccn1 [Sorafenib] + COc1cc2c(Oc3ccc(NC(=O)C4(C(=O)Nc5ccc(F)cc5)CC4)cc3F)ccnc2cc1OCCCN1CCOCC1 [Foretinib] (partner 0.25 µM)
Outline: as §1

Sorafenib + Lapatinib = compound: CNC(=O)c1cc(Oc2ccc(NC(=O)Nc3ccc(Cl)c(C(F)(F)F)c3)cc2)ccn1 [Sorafenib] + CS(=O)(=O)CCNCc1ccc(-c2ccc3ncnc(Nc4ccc(OCc5cccc(F)c5)c(Cl)c4)c3c2)o1 [Lapatinib] (partner 2 µM)
Outline: as §1

Sorafenib + Pictilisib = compound: CNC(=O)c1cc(Oc2ccc(NC(=O)Nc3ccc(Cl)c(C(F)(F)F)c3)cc2)ccn1 [Sorafenib] + CS(=O)(=O)N1CCN(Cc2cc3nc(-c4cccc5[nH]ncc45)nc(N4CCOCC4)c3s2)CC1 [Pictilisib] (partner 1 µM)
Outline: as §1

Sorafenib + Crizotinib = compound: CNC(=O)c1cc(Oc2ccc(NC(=O)Nc3ccc(Cl)c(C(F)(F)F)c3)cc2)ccn1 [Sorafenib] + C[C@@H](Oc1cc(-c2cnn(C3CCNCC3)c2)cnc1N)c1c(Cl)ccc(F)c1Cl [Crizotinib] (partner 1 µM)
Outline: as §1

Sorafenib + Linsitinib = compound: CNC(=O)c1cc(Oc2ccc(NC(=O)Nc3ccc(Cl)c(C(F)(F)F)c3)cc2)ccn1 [Sorafenib] + C[C@]1(O)C[C@@H](c2nc(-c3ccc4ccc(-c5ccccc5)nc4c3)c3c(N)nccn32)C1 [Linsitinib] (partner 1 µM)
Outline: as §1

Sorafenib + Alpelisib = compound: CNC(=O)c1cc(Oc2ccc(NC(=O)Nc3ccc(Cl)c(C(F)(F)F)c3)cc2)ccn1 [Sorafenib] + Cc1nc(NC(=O)N2CCC[C@H]2C(N)=O)sc1-c1ccnc(C(C)(C)C(F)(F)F)c1 [Alpelisib] (partner 2 µM)
Outline: as §1

NCI-H1648
relative viability (Sorafenib; 0.08 µM): 0.921
relative viability (Sorafenib; 0.253 µM): 0.53
relative viability (Sorafenib; 2.53 µM): 0.925
relative viability (Sorafenib; 8 µM): 0.726
relative viability (Sorafenib + Trametinib; first compound 0.08 µM): 0.468
relative viability (Sorafenib + Trametinib; first compound 2.53 µM): 0.454
relative viability (Sorafenib + Trametinib; first compound 8 µM): 0.258
relative viability (Sorafenib + Palbociclib; first compound 0.08 µM): 0.307
relative viability (Sorafenib + Palbociclib; first compound 2.53 µM): 0.249
relative viability (Sorafenib + Palbociclib; first compound 8 µM): 0.231
relative viability (Sorafenib + OSI-027; first compound 0.08 µM): 0.235
relative viability (Sorafenib + OSI-027; first compound 0.253 µM): 0.264
relative viability (Sorafenib + OSI-027; first compound 2.53 µM): 0.247
relative viability (Sorafenib + OSI-027; first compound 8 µM): 0.247
relative viability (Sorafenib + Tozasertib; first compound 0.08 µM): 0.566
relative viability (Sorafenib + Tozasertib; first compound 0.253 µM): 0.4
relative viability (Sorafenib + Tozasertib; first compound 2.53 µM): 0.282
relative viability (Sorafenib + Tozasertib; first compound 8 µM): 0.405
relative viability (Sorafenib + AZD7762; first compound 0.08 µM): 0.704
relative viability (Sorafenib + AZD7762; first compound 2.53 µM): 0.74
relative viability (Sorafenib + AZD7762; first compound 8 µM): 0.498
relative viability (Sorafenib + Pemetrexed; first compound 0.08 µM): 0.771
relative viability (Sorafenib + Pemetrexed; first compound 2.53 µM): 0.708
relative viability (Sorafenib + Pemetrexed; first compound 8 µM): 0.731
relative viability (Sorafenib + Decitabine; first compound 0.08 µM): 0.521
relative viability (Sorafenib + Decitabine; first compound 2.53 µM): 0.682
relative viability (Sorafenib + Decitabine; first compound 8 µM): 0.409
relative viability (Sorafenib + Vorinostat; first compound 0.08 µM): 0.404
relative viability (Sorafenib + Vorinostat; first compound 2.53 µM): 0.482
relative viability (Sorafenib + Vorinostat; first compound 8 µM): 0.321
relative viability (Sorafenib + Olaparib; first compound 0.08 µM): 0.787
relative viability (Sorafenib + Olaparib; first compound 2.53 µM): 0.76
relative viability (Sorafenib + Olaparib; first compound 8 µM): 0.721

Calu-6
relative viability (Sorafenib; 0.08 µM): 1.06
relative viability (Sorafenib; 0.253 µM): 0.959
relative viability (Sorafenib; 2.53 µM): 0.925
relative viability (Sorafenib; 8 µM): 0.711
relative viability (Sorafenib + Bortezomib; first compound 0.08 µM): 0.948
relative viability (Sorafenib + Bortezomib; first compound 0.253 µM): 0.936
relative viability (Sorafenib + Bortezomib; first compound 2.53 µM): 0.934
relative viability (Sorafenib + Bortezomib; first compound 8 µM): 0.61
relative viability (Sorafenib + Navitoclax; first compound 0.08 µM): 0.887
relative viability (Sorafenib + Navitoclax; first compound 0.253 µM): 0.794
relative viability (Sorafenib + Navitoclax; first compound 2.53 µM): 0.724
relative viability (Sorafenib + Navitoclax; first compound 8 µM): 0.457
relative viability (Sorafenib + Foretinib; first compound 0.08 µM): 0.973
relative viability (Sorafenib + Foretinib; first compound 0.253 µM): 0.852
relative viability (Sorafenib + Foretinib; first compound 2.53 µM): 0.816
relative viability (Sorafenib + Foretinib; first compound 8 µM): 0.622
relative viability (Sorafenib + Lapatinib; first compound 0.08 µM): 1.04
relative viability (Sorafenib + Lapatinib; first compound 0.253 µM): 0.984
relative viability (Sorafenib + Lapatinib; first compound 2.53 µM): 0.99
relative viability (Sorafenib + Lapatinib; first compound 8 µM): 0.378
relative viability (Sorafenib + Pictilisib; first compound 0.08 µM): 0.964
relative viability (Sorafenib + Pictilisib; first compound 0.253 µM): 0.805
relative viability (Sorafenib + Pictilisib; first compound 2.53 µM): 0.864
relative viability (Sorafenib + Pictilisib; first compound 8 µM): 0.351
relative viability (Sorafenib + Crizotinib; first compound 0.08 µM): 0.928
relative viability (Sorafenib + Crizotinib; first compound 0.253 µM): 0.735
relative viability (Sorafenib + Crizotinib; first compound 2.53 µM): 0.679
relative viability (Sorafenib + Crizotinib; first compound 8 µM): 0.366
relative viability (Sorafenib + Linsitinib; first compound 0.08 µM): 0.885
relative viability (Sorafenib + Linsitinib; first compound 2.53 µM): 0.904
relative viability (Sorafenib + Linsitinib; first compound 8 µM): 0.778
relative viability (Sorafenib + Alpelisib; first compound 0.08 µM): 0.923
relative viability (Sorafenib + Alpelisib; first compound 0.253 µM): 0.954
relative viability (Sorafenib + Alpelisib; first compound 2.53 µM): 0.948
relative viability (Sorafenib + Alpelisib; first compound 8 µM): 0.487
relative viability (Sorafenib + Olaparib; first compound 0.08 µM): 0.538
relative viability (Sorafenib + Olaparib; first compound 2.53 µM): 0.531
relative viability (Sorafenib + Olaparib; first compound 8 µM): 0.306
